# Key:
# [1] = Solubility measurement in n-butylbenzene; assay type: physicochemical; conditions: room temperature, weight percent based on total solution weight
# Method: The solubility of the small molecule semiconductor was measured in n-butylbenzene at room temperature. The weight percent is based on the total solution weight. Typically, the solubility is lower in n-butylbenzene compared to halogenated solvents such as chloroform, chlorobenzene, and dichlorobenzene.
# [2] = Differential Scanning Calorimetry, thermal stability; assay type: physicochemical; conditions: DSC, heated from 30 to 360° C. at 10° C. per minute
# Method: Differential Scanning Calorimetry Measurement
# Differential Scanning Calorimeter (DSC, TA Instruments 2920 from TA Instruments of New Castle, Del.) was used to measure phase transition and melting point of the small molecule semiconductors. Examples 1 to 8 were heated from 30 to 350° C. at a heating rate of 10° C. per minute. […] No decomposition was observed up to the 350° C. of the testing range. […] Example 9 was heated from 30 to 360° C. at a heating rate of 10° C. per minute. […] Example 9 started to decompose around 357° C.
structure (smiles),measurement,setting,value
"Cc1ccsc1-c1ccc2c(C#C[Si](C(C)C)(C(C)C)C(C)C)c3cc(-c4sccc4C)ccc3c(C#C[Si](C(C)C)(C(C)C)C(C)C)c2c1 [Example 3, 2,6-Bis(3-methyl-thiophene-2-yl)-9,10-bis-[(triisopropylsilyl)ethynyl]anthracene]",Solubility in butyl benzene,[1],2.3 wt %
same,melting point,,237.6 °C
"CCCc1ccc(-c2ccc3c(C#C[Si](C(C)C)(C(C)C)C(C)C)c4cc(-c5ccc(CCC)s5)ccc4c(C#C[Si](C(C)C)(C(C)C)C(C)C)c3c2)s1 [Example 5, 2,6-Bis(5-propyl-thiophene-2-yl)-9,10-bis-[(triisopropylsilyl)ethynyl]anthracene]",Solubility in butyl benzene,[1],1.4 wt %
same,melting point,,208.3 °C
"CCCCCCc1ccsc1-c1ccc2c(C#C[Si](C(C)C)(C(C)C)C(C)C)c3cc(-c4sccc4CCCCCC)ccc3c(C#C[Si](C(C)C)(C(C)C)C(C)C)c2c1 [Example 7, 2,6-Bis(3-hexyl-thiophene-2-yl)-9,10-bis-[(triisopropylsilyl)ethynyl]anthracene]",Solubility in butyl benzene,[1],4.2 wt %
same,melting point,,141.8 °C
"CC(C)[Si](C#Cc1c2ccc(-c3ccc(-c4cccs4)s3)cc2c(C#C[Si](C(C)C)(C(C)C)C(C)C)c2ccc(-c3ccc(-c4cccs4)s3)cc12)(C(C)C)C(C)C [Example 8, 2,6-Bis(2,2′-bithiophene-5-yl)-9,10-bis-[(triisopropylsilyl)ethynyl]anthracene]",Solubility in butyl benzene,[1],0.2 wt %
same,melting point,,299 °C
"CC(C)[Si](C#Cc1c2ccc(-c3cccs3)cc2c(C#C[Si](C(C)C)(C(C)C)C(C)C)c2ccc(-c3cccs3)cc12)(C(C)C)C(C)C [Example 1, 2,6-Bis(thiophene-2-yl)-9,10-bis-[(triisopropylsilyl)ethynyl]anthracene]",Solubility in butyl benzene,[1],0.05 wt %
same,melting point,,293 °C
"Cc1ccc(-c2ccc3c(C#C[Si](C(C)C)(C(C)C)C(C)C)c4cc(-c5ccc(C)s5)ccc4c(C#C[Si](C(C)C)(C(C)C)C(C)C)c3c2)s1 [Example 2, 2,6-Bis(5-methyl-thiophene-2-yl)-9,10-bis-[(triisopropylsilyl)ethynyl]anthracene]",Solubility in butyl benzene,[1],0.05 wt %
same,melting point,,333 °C
"CCc1ccc(-c2ccc3c(C#C[Si](C(C)C)(C(C)C)C(C)C)c4cc(-c5ccc(CC)s5)ccc4c(C#C[Si](C(C)C)(C(C)C)C(C)C)c3c2)s1 [Example 4, 2,6-Bis(5-ethyl-thiophene-2-yl)-9,10-bis-[(triisopropylsilyl)ethynyl]anthracene]",Solubility in butyl benzene,[1],1.4 wt %
same,melting point,,274.6 °C
"CCCCCCc1ccc(-c2ccc3c(C#C[Si](C(C)C)(C(C)C)C(C)C)c4cc(-c5ccc(CCCCCC)s5)ccc4c(C#C[Si](C(C)C)(C(C)C)C(C)C)c3c2)s1 [Example 6, 2,6-Bis(5-hexyl-thiophene-2-yl)-9,10-bis-[(triisopropylsilyl)ethynyl]anthracene]",Solubility in butyl benzene,[1],2.5 wt %
same,melting point,,190.3 °C
"CC(C)[Si](C#Cc1c2ccc(-c3ccc(C=O)s3)cc2c(C#C[Si](C(C)C)(C(C)C)C(C)C)c2ccc(-c3ccc(C=O)s3)cc12)(C(C)C)C(C)C [Example 9, 2,6-Bis(5-formyl-thiophene-2-yl)-9,10-bis-[(triisopropylsilyl)ethynyl]anthracene]",Solubility in butyl benzene,[1],0.04 wt %
same,melting point,,> 350 °C
same,Temperature at which decomposition started,[2],around 357 °C

# From US8178873B2, “Solution processable organic semiconductors” (3M Innovative Properties Company, priority 2007, dated 2012)
